Structures are written as SMILES.

The assay has as its target placental alkaline phosphatase (ALPP), human. As to the kind of experiment: human placental alkaline phosphatase inhibition – biochemical, luminescence, confirmation (AID 1512). The settings on record: purified PLAP enzyme, luminescent substrate read-out.
What is called IC50 is the concentration that gives 50% inhibition. For `O=C(CNc1nc2ccccc2[nH]1)c1ccc(O)c(O)c1`, the IC50 is 9.11 µM. With `Cc1cc2ncn(CC(=O)c3ccc(O)c(O)c3)c2cc1C` the figure was 5.83 µM; with `O=C(Cn1ccnc1-c1ccccc1)c1ccc(O)c(O)c1`, 17.2 µM; with `CC(C)NCC(=O)c1ccc(O)c(O)c1`, 39.3 µM. As to `Cc1cc(C)nc(NCc2ccc(O)c(O)c2)n1`, the IC50 is 51.2 µM.

`Cc1nc(Br)cn1CC(=O)c1ccc(O)c(O)c1`: the IC50 was 4.96 µM. The same measure for `Cc1cn(CC(=O)c2ccc(O)c(O)c2)cn1`: 5.81 µM.

The values are drawn from PubChem BioAssay AID1512 (Sanford-Burnham Center for Chemical Genomics, 2009).
